The values below come from the supplement of paper PMC10307832.

Experiment in all cases: relative viability (nuclei count vs DMSO), 5 days (fraction); higher = more cells survive
Compound in the test “AZD8055 + Luminespib”: COc1ccc(-c2ccc3c(N4CCOC[C@@H]4C)nc(N4CCOC[C@@H]4C)nc3n2)cc1CO [AZD8055] + CCNC(=O)c1noc(-c2cc(C(C)C)c(O)cc2O)c1-c1ccc(CN2CCOCC2)cc1 [Luminespib] (partner 0.01 µM)
In a few lines:
(§1)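 After 5 days of treatment, lung cancer cells in 1536-well plates were fixed and stained in a single step (final 0.05% Triton X-100, 1% formaldehyde, 1 ug/ml Hoechst) and their nuclei counted on 4× images. Treatment had been applied by pin tool the day after seeding as one drug alone or as a fixed anchor-drug dose with five library-drug doses (not always all listed) in √10 steps. Relative viability is the nuclei count of treated wells divided by that of vehicle wells, and values are medians of duplicate plates.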

Compound in the test “AZD8055 + Dasatinib”: COc1ccc(-c2ccc3c(N4CCOC[C@@H]4C)nc(N4CCOC[C@@H]4C)nc3n2)cc1CO [AZD8055] + Cc1nc(Nc2ncc(C(=O)Nc3c(C)cccc3Cl)s2)cc(N2CCN(CCO)CC2)n1 [Dasatinib] (partner 0.075 µM)
In a few lines: as §1

Compound in the test “AZD8055 + Decitabine”: COc1ccc(-c2ccc3c(N4CCOC[C@@H]4C)nc(N4CCOC[C@@H]4C)nc3n2)cc1CO [AZD8055] + Nc1ncn([C@H]2C[C@H](O)[C@@H](CO)O2)c(=O)n1 [Decitabine] (partner 2 µM)
Put shortly: as §1

Compound in the test “AZD8055 + Foretinib”: COc1ccc(-c2ccc3c(N4CCOC[C@@H]4C)nc(N4CCOC[C@@H]4C)nc3n2)cc1CO [AZD8055] + COc1cc2c(Oc3ccc(NC(=O)C4(C(=O)Nc5ccc(F)cc5)CC4)cc3F)ccnc2cc1OCCCN1CCOCC1 [Foretinib] (partner 0.25 µM)
In a few lines:
as §1

As for NCI-H522, the relative viability worked out at 1.19 with AZD8055 + Luminespib (first compound 0.01 µM); 0.994 in the test with AZD8055 + Luminespib (first compound 0.03162 µM); 0.744 in the test with AZD8055 + Luminespib (first compound 0.1 µM); 0.581 in the test with AZD8055 + Luminespib (first compound 0.3162 µM); 0.553 with AZD8055 + Luminespib (first compound 1 µM); 0.864 with AZD8055 + Dasatinib (first compound 0.01 µM). The relative viability came to 0.831 in the test with AZD8055 + Dasatinib (first compound 0.03162 µM); 0.907 with AZD8055 + Dasatinib (first compound 0.1 µM); 0.625 with AZD8055 + Dasatinib (first compound 0.3162 µM); 0.535 with AZD8055 + Dasatinib (first compound 1 µM); 0.737 with AZD8055 + Decitabine (first compound 0.01 µM); 0.591 with AZD8055 + Decitabine (first compound 0.03162 µM). The relative viability is 0.619 with AZD8055 + Decitabine (first compound 0.1 µM), 0.527 with AZD8055 + Decitabine (first compound 0.3162 µM) and 0.462 in the test with AZD8055 + Decitabine (first compound 1 µM).

For NCI-H1299, the relative viability with AZD8055 + Foretinib (first compound 0.01 µM) came out at 1.19; with AZD8055 + Foretinib (first compound 0.03162 µM), 1.18; with AZD8055 + Foretinib (first compound 0.1 µM), 1.14; with AZD8055 + Foretinib (first compound 0.3162 µM), 0.863; in the test with AZD8055 + Foretinib (first compound 1 µM) it was 0.528.

With NCI-H1563, the relative viability with AZD8055 + Luminespib (first compound 0.01 µM) was found to be 0.594; with AZD8055 + Luminespib (first compound 0.03162 µM), 0.536; in the test with AZD8055 + Luminespib (first compound 0.1 µM), 0.541; with AZD8055 + Luminespib (first compound 0.3162 µM), 0.496; with AZD8055 + Luminespib (first compound 1 µM), 0.49; with AZD8055 + Dasatinib (first compound 0.01 µM), 0.458. In addition, the relative viability in the test with AZD8055 + Dasatinib (first compound 0.03162 µM) was found to be 0.458; with AZD8055 + Dasatinib (first compound 0.1 µM) it was 0.443; with AZD8055 + Dasatinib (first compound 0.3162 µM), 0.405; in the test with AZD8055 + Dasatinib (first compound 1 µM), 0.384; in the test with AZD8055 + Foretinib (first compound 0.01 µM), 0.913; with AZD8055 + Foretinib (first compound 0.03162 µM), 0.723. In addition, the values for the relative viability in the test with AZD8055 + Foretinib (first compound 0.1 µM), with AZD8055 + Foretinib (first compound 0.3162 µM) and in the test with AZD8055 + Foretinib (first compound 1 µM) were 0.725, 0.635 and 0.645, respectively.

With NCI-H1648, the relative viability was 0.422 with AZD8055 + Decitabine (first compound 0.01 µM); 0.504 with AZD8055 + Decitabine (first compound 0.03162 µM); 0.42 in the test with AZD8055 + Decitabine (first compound 0.1 µM); 0.277 with AZD8055 + Decitabine (first compound 0.3162 µM); 0.261 with AZD8055 + Decitabine (first compound 1 µM).

NCI-H1703: the relative viability with AZD8055 + Foretinib (first compound 0.01 µM) was 0.34; in the test with AZD8055 + Foretinib (first compound 0.03162 µM), 0.32; in the test with AZD8055 + Foretinib (first compound 0.1 µM) it was 0.306; with AZD8055 + Foretinib (first compound 0.3162 µM), 0.301; with AZD8055 + Foretinib (first compound 1 µM) it was 0.226.

On to NCI-H1792, for which the relative viability with AZD8055 + Luminespib (first compound 0.01 µM) was 0.38; with AZD8055 + Luminespib (first compound 0.03162 µM), 0.415; with AZD8055 + Luminespib (first compound 0.1 µM), 0.218; with AZD8055 + Luminespib (first compound 0.3162 µM) it was 0.295; in the test with AZD8055 + Luminespib (first compound 1 µM), 0.127; with AZD8055 + Dasatinib (first compound 0.01 µM) it was 0.844. The relative viability was determined as 0.667 with AZD8055 + Dasatinib (first compound 0.03162 µM); 0.583 with AZD8055 + Dasatinib (first compound 0.1 µM); 0.321 with AZD8055 + Dasatinib (first compound 0.3162 µM); 0.237 in the test with AZD8055 + Dasatinib (first compound 1 µM); 0.585 with AZD8055 + Decitabine (first compound 0.01 µM); 0.38 with AZD8055 + Decitabine (first compound 0.03162 µM). Also, the relative viability in the test with AZD8055 + Decitabine (first compound 0.1 µM) turned out to be 0.338; with AZD8055 + Decitabine (first compound 0.3162 µM), 0.093; with AZD8055 + Decitabine (first compound 1 µM), 0.124.

Take NCI-H2228: the relative viability in the test with AZD8055 + Luminespib (first compound 0.01 µM) was determined as 0.137; with AZD8055 + Luminespib (first compound 0.03162 µM) it was 0.11; with AZD8055 + Luminespib (first compound 0.1 µM) it was 0.104; with AZD8055 + Luminespib (first compound 0.3162 µM), 0.15; with AZD8055 + Luminespib (first compound 1 µM) it was 0.144; with AZD8055 + Dasatinib (first compound 0.01 µM), 0.429. Further, the relative viability in the test with AZD8055 + Dasatinib (first compound 0.03162 µM) was found to be 0.358; with AZD8055 + Dasatinib (first compound 0.1 µM), 0.136; with AZD8055 + Dasatinib (first compound 0.3162 µM), 0.144; with AZD8055 + Dasatinib (first compound 1 µM), 0.171; with AZD8055 + Foretinib (first compound 0.01 µM) it was 0.739; in the test with AZD8055 + Foretinib (first compound 0.03162 µM) it was 0.54. The relative viability with AZD8055 + Foretinib (first compound 0.1 µM) was 0.385; in the test with AZD8055 + Foretinib (first compound 0.3162 µM) it was 0.166; in the test with AZD8055 + Foretinib (first compound 1 µM), 0.241.
